# Data reported in US9663789B2, “PME-1 as a biomarker to predict and diagnose endometrial and breast cancer and gene silencing of PME-1 to inhibit epithelial to mesenchymal transition” (MEDICAL DIAGNOSTIC LABORATORIES, LLC, priority 2013, dated 2017).
# Assays:
# PME-1 [1] = assay: Western blot of PME-1 protein in RL95-2 cells; type: cell-based, human; conditions: GAPDH loading control
# Method: We prepared RL95-2 cell lines expressing empty vector (control), over-expressing PME-1 (+PME-1), or expressing shRNA against PPME1, the gene that codes for PME-1 protein (−PME-1). Using these cells, we confirmed the appropriate level of PME-1 via real-time RT-PCR (data not shown) and Western blot analysis (FIG. 8). GAPDH was used as a loading control.
# We also prepared two different shRNAs targeted against PME-1.
# 15 μg of protein was used for western analysis. PME-1 antibody (Santa Cruz) and COXIV (Cell Signaling Technologies) were used for detection of proteins and the blots were developed using chemiluminescence (Pierce ECL Western Blotting Substrate—Thermo Scientific) on the GE ImageQuant LAS 4000. For analysis of Akt, ERK, and β-catenin signaling in tissue culture, western analyses were completed as follows. RL95-2 cells stably infected with lentivirus expressing constructs were selected with puromycin (Invivogen). The cells were incubated with either 50 μM Akt inhibitor (LY 294002, Cell Signaling Technologies) or 40 μM ERK inhibitor (V0126, Cell Signaling Technologies) for 1-2 hours at 37° C. 1.5× Laemelli buffer (0.5 M Tris pH6.8, […], 10% sodium dodecyl sulfate, 100 mM EDTA) was used to prepare cell lysates. 20 μg of protein was used for western analysis. […]
# recombinant PME-1_des3 = recombinant PME-1_des3 (Homo sapiens, UniProt Q9Y570); assay: Thermal melt (thermal shift) assay; type: binding; conditions: 50 μM ABL-127; PME-1+DMSO vehicle ˜55° C.
# Method: There are several commercially available covalent PME-1 inhibitors that we have analyzed as potential endometrial cancer therapeutics. To confirm that the inhibitors directly bind PME-1, we completed a thermal melt assay. One micromole (1 μmole) of recombinant PME-1_des3, of which the last 3 amino acids are deleted, were pre-incubated with SYBR orange in the presence of 50 μM ABL-127 (a potent covalent PME-1 inhibitor, squares) or 0.05% DMSO (vehicle, circles) for 10 minutes (FIG. 25) at 37° C. We then performed a thermal gradient, increasing the temperature by 2° C. each minute from 37° C. to 95° C. and fluorescent signal was detected at 492-601 nm on a thermal cycler. The increase in Tm from ˜55° C. (PME-1+DMSO, circles) to ˜65° C. (PME-1+ABL-127, squares) indicated thermal stabilization of the PME-1 protein via direct binding of the ABL-127 inhibitor (FIG. 25).
# The assay was completed by first conducting a 10 min pre-incubation of one μmole of recombinant PME-1des3 with 50 μM ABL127 (Sigma) or vehicle (0.05% DMSO) in the presence of SYBR Orange (1:1,000, v/v, Sigma) at 37° C. in 1×NEB buffer 2 (50 mM NaCl, 10 mM Tris-HCl, 10 mM MgCl2, 1 mM DTT, pH 7.9 at 25° C.), a thermal gradient was performed increasing temperature by 2° C. per minute increments from 37° to 95° C. and fluorescence (492 nm-610 nm) was acquired on a thermal cycler Mx3005P (Stratagene).
# Ishikawa cells [2] = assay: Trans-well migration assay; type: cell-based, human; conditions: 24 hr, collagen, 30% FBS bottom chamber
# Method: We next asked if PME-1 inhibition led to decreased cell migration by completing a trans-well migration assay. Cells were synchronized for 24 hours in media containing 0% FBS. For this experiment, DMSO was again used as the vehicle control and Ishikawa cells were treated with DMSO (control) or 50 nM ABL-127 or 20 μM AMZ-30 for 24 hr and were allowed to migrate through a collagen-coated well towards the bottom chamber, containing media with 30% FBS.
# The assay was completed with ECC-1 endometrial carcinoma cell lines following kit instructions Cultrex 96 Well Collagen IV Cell Invasion Assay (cat #3458-096-K). Briefly, cells were serum starved for 24 hours prior to experimentation, then counted and put into the top chamber of a collagen type IV coated Transwell membrane at a concentration of 1×10^6 cells/well in 0% FBS. The bottom chamber contained 30% FBS. Cells were allowed to invade at 37° C. humid chamber incubator for 24 hours. Cells that invaded were analyzed using the kit provided Calcein-AM and fluorescence was read using FluoStar Galaxy.
# Ishikawa cells [3] = assay: Foci formation assay, Ishikawa cells; type: cell-based, human; conditions: DMSO set to 100%
# Method: This study was completed in Ishikawa endometrial cancer cells.
# 1,000 cells were plated in a six well tissue culture dish in selection media (to include 5 μg/ml puromycin) (InvivoGen). Cells were allowed to adhere and grow in a 5% CO2, 37° C. incubator for 10 to 14 days. […] Cells were stained with 1% crystal violet (Sigma Aldrich) for five minutes and rinsed with PBS. Colonies were counted and data is presented as the percentage of change compared to the control. All Experiments were repeated at least three times.
# RL95-2 cells = assay: Colony forming / invasive growth assay in Matrigel; type: cell-based, human; conditions: RL95-2, 10 ng/ml TGF-β, 10 days
# Method: To determine if PME-1 contributes to the more invasive and metastatic phenotypes, we performed a colony forming assay in matrigel.
# The 3D On Top Matrigel Assay was completed in 24 well dishes. Briefly, the bottoms of 24 well dishes were coated with 50 μl BD Matrigel Basement Matrix Phenol Red Free (BD Biosciences cat. #356237) and allowed to solidify at 37° C. 10^5 cells were suspended in 250 μl chilled medium containing either 10 ng/ml of TGF-b or vehicle and allowed to settle at 37° C. for 30 minutes. Chilled medium containing 10% of Matrigel was added by pipetting gently down the sidewall of the well and incubated at 37° C. for ten days changing top medium every second day. Colony counts were performed on the tenth day; averages were taken from three fields of view using a 10× objective. Experiment was repeated three times.
# PME-1 [4] = assay: Quantitative real-time PCR of PME-1 expression after TGF-β treatment; type: cell-based, human; conditions: RL95-2 control cells and +PME-1 cells, TGF-β 24 hours
# Method: In this study, we transfected RL95-2 cells to express empty vector (Control), over-expressing PME-1 (+PME-1) or expressing shRNA against PME-1 (−PME-1 SEQ ID NO: 2) followed by serum starvation for 24 hours. Afterwards, either vehicle or TGF-β treatment was performed at the end of the 24 hours. TGF-β was used to induce cells to initiate the EMT program. Gene expression analysis was conducted using quantitative real-time PCR.
# Total RNA was extracted with Qiagen RNAEasy kit from RL95-2 cells. cDNA was synthesized using 500 ng-1 μg of RNA and SuperScript VILO c-DNA mix (Life Technologies). Taqman probes and PCR-mix were purchased from Life Technologies. All samples were run in triplicates. Results are representative of three independent experiments in which genes of interest were normalized to the house-keeping gene, 18S or GAPDH, where fold-change was calculated using the ddCt method.
# Chain of recombinant PME-1_des3 (Q9Y570 1-383): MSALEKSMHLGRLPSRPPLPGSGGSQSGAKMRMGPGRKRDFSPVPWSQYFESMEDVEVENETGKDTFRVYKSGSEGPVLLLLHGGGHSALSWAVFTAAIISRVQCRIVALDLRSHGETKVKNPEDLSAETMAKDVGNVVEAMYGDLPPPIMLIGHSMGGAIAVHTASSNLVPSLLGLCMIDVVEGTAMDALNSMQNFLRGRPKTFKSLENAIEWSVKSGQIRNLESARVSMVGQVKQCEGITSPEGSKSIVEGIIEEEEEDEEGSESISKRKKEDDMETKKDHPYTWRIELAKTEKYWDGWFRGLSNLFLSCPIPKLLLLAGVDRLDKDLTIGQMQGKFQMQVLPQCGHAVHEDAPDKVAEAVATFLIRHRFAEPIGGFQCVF
compound,measurement,setting,value
"shPPME1 no. 1: shRNA against PPME1, target sequence SEQ ID NO: 1 GTACAGCTATGGATGCACTTA, bp 554-574; full hairpin SEQ ID NO: 7 (CCGGGTACAGCTATGGATGCACTTACTCGAGTAAGTGCATCCATAGCTGTACTTTTT; listed as Homo sapiens)",PME-1 levels by Western blot analysis,PME-1 [1],significantly decreased PME-1 levels
"COC(=O)N1C(=O)C(c2ccccc2)(C2CCCC2)N1C(=O)OC (stereo in doubt) [ABL-127, (3R)-Dimethyl 3-cyclopentyl-4-oxo-3-phenyl-1,2-diazetidine-1,2,-dicarboxylate]",Tm of PME-1 with inhibitor,recombinant PME-1_des3,~65 °C
same,percentage of cells capable of migrating,Ishikawa cells [2]; 50 nM,dramatic decrease in the percentage of cells that are capable of migrating
same,decrease in the amount of foci formed,Ishikawa cells [3]; 50 nM every 2-3 days for 10 days,~50%
"N#C/C(=C\c1cccn1S(=O)(=O)c1cccc([N+](=O)[O-])c1)S(=O)(=O)c1ccc(F)cc1 [AMZ-30, (E)-2-(4-Fluorophenylsulfonyl)-3-(1-(3-nitrophenylsulfonyl)-1H-pyrrol-2-yl)-acrylonitrile]",percentage of cells capable of migrating,Ishikawa cells [2]; 20 μM,dramatic decrease in the percentage of cells that are capable of migrating
same,decrease in the amount of foci formed,Ishikawa cells [3]; 25 μM every 2-3 days for 10 days,~50%
TGF-β,colony number in Matrigel,RL95-2 cells,overall decrease in colony number
same,increase in PME-1 expression,PME-1 [4],~2 fold
